# Assays:
# Type in all cases: in vivo
# [1] = tested on: velvetleaf (Abutilon theophrasti); assay: Test C postemergence
# Method in brief: (§1)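 Herbicidal effect is a visual 0–100 score (100 = complete control) assigned versus untreated plants, 12 to 14 days after spraying in the greenhouse. Test compounds were applied in a non-phytotoxic, surfactant-containing solvent.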
# [2] = tested on: Surinam grass (Brachiaria decumbens); assay: Test C postemergence
# Method in brief: as §1
# soybean (Glycine max) = assay: Test C postemergence
# Method in brief: as §1
# [3] = tested on: goosegrass (Eleusine indica); assay: Test C postemergence
# Method in brief: as §1
# [4] = tested on: lambsquarters (Chenopodium album); assay: Test C postemergence
# Method in brief: as §1
# [5] = tested on: johnsongrass (Sorghum halepense); assay: Test C postemergence
# Method in brief: as §1
# [6] = tested on: crabgrass (Digitaria sanguinalis); assay: Test C postemergence
# Method in brief: as §1
# kochia (Kochia scoparia) = assay: Test C postemergence
# Method in brief: as §1
# [7] = tested on: yellow nutsedge (Cyperus esculentus); assay: Test C postemergence
# Method in brief: as §1
# [8] = tested on: chickweed (Stellaria media); assay: Test C postemergence
# Method in brief: as §1
# [9] = tested on: morningglory (Ipomoea hederacea); assay: Test C postemergence
# Method in brief: as §1
# [10] = tested on: giant foxtail (Setaria faberii); assay: Test C postemergence
# Method in brief: as §1
# [11] = tested on: cocklebur (Xanthium strumarium); assay: Test C postemergence
# Method in brief: as §1
# [12] = tested on: common ragweed (Ambrosia elatior); assay: Test C postemergence
# Method in brief: as §1
# [13] = tested on: pigweed (Amaranthus retroflexus); assay: Test C postemergence
# Method in brief: as §1
# [14] = tested on: woolly cupgrass (Eriochloa villosa); assay: Test C postemergence
# Method in brief: as §1
# [15] = tested on: bermudagrass (Cynodon dactylon); assay: Test C postemergence
# Method in brief: as §1
# corn (Zea mays) = assay: Test C postemergence
# Method in brief: as §1
# Sunflower = assay: Test C preemergence; conditions: Rate 250 g/ha, scale 0 to 100, 0 no effect, 100 complete control
# [16] = Rate 250 g/ha, scale 0 to 100 (0 no effect, 100 complete control)
# [17] = Rate 500 g/ha, scale 0 to 100 (0 no effect, 100 complete control)
# [18] = Rate 125 g/ha, scale 0 to 100, 0 no effect, 100 complete control
structure (smiles),measurement,setting,value
CCC(CC)c1ccn(C2CCN(c3ccc(Br)c(OC)c3)C2=O)n1 (stereo not drawn) [Compound 143],"Plant response rating, Velvetleaf","[1]; Rate 62 g/ha, scale 0 to 100",40
same,"Plant response rating, Velvetleaf",[1]; [16],80
same,"Plant response rating, Velvetleaf",[1]; [17],90
same,"Plant response rating, Velvetleaf",[1]; scale 0 to 100,40
same,"Plant response rating, Surinam grass","[2]; Rate 62 g/ha, scale 0 to 100",20
same,"Plant response rating, Surinam grass",[2]; [18],20
same,"Plant response rating, Surinam grass",[2]; [16],50
same,"Plant response rating, Surinam grass",[2]; [17],70
same,"Plant response rating, Soybean","soybean (Glycine max); Rate 62 g/ha, scale 0 to 100",60
same,"Plant response rating, Soybean",soybean (Glycine max); [16],100
same,"Plant response rating, Soybean",soybean (Glycine max); [17],100
same,"Plant response rating, Goosegrass","[3]; Rate 62 g/ha, scale 0 to 100",30
same,"Plant response rating, Goosegrass",[3]; [16],60
same,"Plant response rating, Goosegrass",[3]; [17],70
same,"Plant response rating, Lambsquarters","[4]; Rate 62 g/ha, scale 0 to 100",90
same,"Plant response rating, Lambsquarters",[4]; [16],90
same,"Plant response rating, Lambsquarters",[4]; [17],100
same,"Plant response rating, Johnsongrass","[5]; Rate 62 g/ha, scale 0 to 100",0
same,"Plant response rating, Johnsongrass",[5]; [16],30
same,"Plant response rating, Johnsongrass",[5]; [17],30
same,"Plant response rating, Johnsongrass","[5]; rate not given, scale 0 to 100",10
same,"Plant response rating, Crabgrass","[6]; Rate 62 g/ha, scale 0 to 100",40
same,"Plant response rating, Crabgrass",[6]; [16],70
same,"Plant response rating, Crabgrass",[6]; [17],70
same,"Plant response rating, Kochia","kochia (Kochia scoparia); Rate 62 g/ha, scale 0 to 100",40
same,"Plant response rating, Kochia",kochia (Kochia scoparia); [16],90
same,"Plant response rating, Kochia",kochia (Kochia scoparia); [17],90
same,"Plant response rating, Nutsedge","[7]; Rate 62 g/ha, scale 0 to 100",0
same,"Plant response rating, Nutsedge",[7]; [16],0
same,"Plant response rating, Nutsedge",[7]; [17],0
same,"Plant response rating, Chickweed","[8]; Rate 62 g/ha, scale 0 to 100",100
same,"Plant response rating, Chickweed",[8]; [18],100
same,"Plant response rating, Morningglory","[9]; Rate 62 g/ha, scale 0 to 100",90
same,"Plant response rating, Morningglory",[9]; [16],100
same,"Plant response rating, Morningglory",[9]; [17],100
same,"Plant response rating, Foxtail, Giant","[10]; Rate 62 g/ha, scale 0 to 100",30
same,"Plant response rating, Foxtail, Giant",[10]; [16],80
same,"Plant response rating, Foxtail, Giant",[10]; [17],90
same,"Plant response rating, Cocklebur","[11]; Rate 62 g/ha, scale 0 to 100",20
same,"Plant response rating, Cocklebur",[11]; [16],90
same,"Plant response rating, Cocklebur",[11]; [17],90
same,"Plant response rating, Ragweed, Common","[12]; Rate 62 g/ha, scale 0 to 100",20
same,"Plant response rating, Ragweed, Common",[12]; [16],90
same,"Plant response rating, Ragweed, Common",[12]; [17],90
same,"Plant response rating, Pigweed","[13]; Rate 62 g/ha, scale 0 to 100",70
same,"Plant response rating, Pigweed",[13]; [16],70
same,"Plant response rating, Pigweed",[13]; [17],90
same,"Plant response rating, Cupgrass, Woolly","[14]; Rate 62 g/ha, scale 0 to 100",40
same,"Plant response rating, Cupgrass, Woolly",[14]; [16],60
same,"Plant response rating, Cupgrass, Woolly",[14]; [17],70
same,"Plant response rating, Bermudagrass","[15]; Rate 62 g/ha, scale 0 to 100",20
same,"Plant response rating, Bermudagrass",[15]; [18],40
same,"Plant response rating, Bermudagrass",[15]; [16],70
same,"Plant response rating, Bermudagrass",[15]; [17],80
same,"Plant response rating, Corn","corn (Zea mays); Rate 62 g/ha, scale 0 to 100",0
same,"Plant response rating, Corn",corn (Zea mays); [16],0
same,"Plant response rating, Corn",corn (Zea mays); [17],30
same,"Plant response rating, Corn",corn (Zea mays); scale 0 to 100,0
same,"Plant response rating, Sunflower",Sunflower,80
COc1cc(N2CCC(n3ccc(C(C)(C)C)n3)C2=O)ccc1Cl (stereo not drawn) [Compound 117],"Plant response rating, Velvetleaf","[1]; Rate 62 g/ha, scale 0 to 100",20
same,"Plant response rating, Velvetleaf",[1]; [16],35
same,"Plant response rating, Velvetleaf",[1]; [17],60
same,"Plant response rating, Velvetleaf",[1]; scale 0 to 100,35
same,"Plant response rating, Surinam grass","[2]; Rate 62 g/ha, scale 0 to 100",0
same,"Plant response rating, Surinam grass",[2]; [18],0
same,"Plant response rating, Surinam grass",[2]; [16],0
same,"Plant response rating, Surinam grass",[2]; [17],15
same,"Plant response rating, Soybean","soybean (Glycine max); Rate 62 g/ha, scale 0 to 100",50
same,"Plant response rating, Soybean",soybean (Glycine max); [16],85
same,"Plant response rating, Soybean",soybean (Glycine max); [17],90
same,"Plant response rating, Goosegrass","[3]; Rate 62 g/ha, scale 0 to 100",10
same,"Plant response rating, Goosegrass",[3]; [16],70
same,"Plant response rating, Goosegrass",[3]; [17],100
same,"Plant response rating, Lambsquarters","[4]; Rate 62 g/ha, scale 0 to 100",75
same,"Plant response rating, Lambsquarters",[4]; [16],95
same,"Plant response rating, Lambsquarters",[4]; [17],100
same,"Plant response rating, Johnsongrass","[5]; Rate 62 g/ha, scale 0 to 100",0
same,"Plant response rating, Johnsongrass",[5]; [16],0
same,"Plant response rating, Johnsongrass",[5]; [17],0
same,"Plant response rating, Johnsongrass","[5]; rate not given, scale 0 to 100",0
same,"Plant response rating, Crabgrass","[6]; Rate 62 g/ha, scale 0 to 100",0
same,"Plant response rating, Crabgrass",[6]; [16],10
same,"Plant response rating, Crabgrass",[6]; [17],10
same,"Plant response rating, Kochia","kochia (Kochia scoparia); Rate 62 g/ha, scale 0 to 100",80
same,"Plant response rating, Kochia",kochia (Kochia scoparia); [16],85
same,"Plant response rating, Kochia",kochia (Kochia scoparia); [17],90
same,"Plant response rating, Nutsedge","[7]; Rate 62 g/ha, scale 0 to 100",0
same,"Plant response rating, Nutsedge",[7]; [16],0
same,"Plant response rating, Nutsedge",[7]; [17],0
same,"Plant response rating, Morningglory","[9]; Rate 62 g/ha, scale 0 to 100",100
same,"Plant response rating, Morningglory",[9]; [16],100
same,"Plant response rating, Morningglory",[9]; [17],100
same,"Plant response rating, Foxtail, Giant","[10]; Rate 62 g/ha, scale 0 to 100",0
same,"Plant response rating, Foxtail, Giant",[10]; [16],30
same,"Plant response rating, Foxtail, Giant",[10]; [17],60
same,"Plant response rating, Cocklebur","[11]; Rate 62 g/ha, scale 0 to 100",0
same,"Plant response rating, Cocklebur",[11]; [16],85
same,"Plant response rating, Cocklebur",[11]; [17],100
same,"Plant response rating, Ragweed, Common",[12]; [17],90
same,"Plant response rating, Pigweed","[13]; Rate 62 g/ha, scale 0 to 100",60
same,"Plant response rating, Pigweed",[13]; [16],90
same,"Plant response rating, Pigweed",[13]; [17],100
same,"Plant response rating, Cupgrass, Woolly","[14]; Rate 62 g/ha, scale 0 to 100",0
same,"Plant response rating, Cupgrass, Woolly",[14]; [16],40
same,"Plant response rating, Cupgrass, Woolly",[14]; [17],45
same,"Plant response rating, Bermudagrass","[15]; Rate 62 g/ha, scale 0 to 100",0
same,"Plant response rating, Bermudagrass",[15]; [18],50
same,"Plant response rating, Bermudagrass",[15]; [16],50
same,"Plant response rating, Bermudagrass",[15]; [17],95
same,"Plant response rating, Corn","corn (Zea mays); Rate 62 g/ha, scale 0 to 100",0
same,"Plant response rating, Corn",corn (Zea mays); [16],0
same,"Plant response rating, Corn",corn (Zea mays); [17],10
same,"Plant response rating, Corn",corn (Zea mays); scale 0 to 100,0
same,"Plant response rating, Sunflower",Sunflower,60
